Reference: patent US11324774B2, “Compositions of oral alkaline salts and metabolic acid inducers and uses thereof” (Augusta University Research Institute, Inc., priority 2018, dated 2022)
Like-named read-outs stand apart in the source and are kept apart here.

How the values were obtained:
[1] = 0.1M in drinking water
Procedure: Urine collection: For urine collection rats were placed in rat metabolic cages for 24 hours (Nalgene, Rochester, N.Y.). Urine was collected and weighed for volume determination. Up to 10 mL of urine was stored at −80° C. for later analysis. All urinary data are presented as 24 hour urinary excretion.
Electrolytes: Urinary Na, K and Cl measurements were obtained using an electrolyte analyzer (Easylite; Medica Co, Bedford Mass.). Samples were diluted 1:10, 1 part urine to 9 parts Easylyte Urine Diluent as per the manufactures instructions.
(§1) Rat protocols: Dahl SS rats: All rats were maintained on low salt chow with ad libitum water (tap water). […] Following four days of low salt (LS) feeding, rats were placed on an 8% HS diet (AIN76A 8%; Dyets) for two weeks. 24 hour urine collections were obtained on day 3 of low salt and day 7 and day 14 of high salt feeding if applicable. Following 14 days of HS feeding, rats were anesthetized with isoflurane (2-5%) and tissue harvested for analysis.

[2] = test system: T-regulatory cells (FOXP3+ T-regs), TH17 cells; experiment: Circulating T-regulatory and TH17 cells in rats; format: in vivo
blood = conditions: 0.1M NaHCO3 in drinking water
Procedure: Flow cytometry: With the exception of one group of rats (n=5+5), in all HS fed Dah SS rats, blood pressure telemetry devices were implanted prior to beginning the study. […] No surgical procedures were performed on LS fed Dahl SS rats or Sprague Dawley rats prior to tissue harvest. On the day of tissue harvest rats were anesthetized with isoflurane (2-5%) and a midline incision was performed. The abdominal aorta was catheterized for the collection of ˜2mL of arterial blood in a heparinized tube and the left kidney excised and immediately processed for flow cytometry. Antibody markers utilized for flow cytometry as well as references are given in the online methods.
In all flow studies, cells were then incubated with antibodies for surface markers for 20 minutes on ice in the dark (all antibodies from Pharmingen-BD-Biosciences, San Jose, Calif.). Cells were then washed with PBS, fixed and permeabilized using FOXP3/Transcription Factor Fix/Perm Buffer (eBiosciences, San Diego, Calif.) for 15 minutes in the dark on ice, and washed once again with PBS before incubation with antibodies for intracellular staining of Foxp3, TNFa, IL-10, and IL-17, on ice in the dark for 20 minutes (BD Biosciences). Cells were then washed and run through a four-color flow cytometer (FACS Calibur, Becton-Dickinson), and data were collected using CellQuest software.
In all flow studies, group identifiers were removed and flow cytometry analysis was performed by an investigator unaware of the hypothesis or the origin of samples. Samples were double-stained with control IgG and cell markers and were used to assess any spillover signal of fluorochromes; proper compensation was set to ensure the median fluorescence intensities of negative and positive cells were identical and were both gated populations. Gating was used to exclude dead cells and debris using forward and side scatterplots. In each analysis, 100,000 total events were collected. As a gating strategy, for each sample, isotype-matched controls were analyzed to set the appropriate gates. For each marker, samples were analyzed in duplicate measurements. To minimize false-positive events, the number of double- positive events detected with the isotype controls was subtracted from the number of double-positive cells stained with corresponding antibodies (not isotype control), respectively. Cells expressing a specific marker were reported as a percentage of the number of gated events.
as §1
Dahl SS rats on the LS protocol were treated identically to the HS protocol above except following 4 days of LS rats were anesthetized and tissue harvested for flow cytometric analysis prior to beginning a HS diet.

splenic macrophages = conditions: 3 days, 0.1M in drinking water (unpublished data)
parasympathetic activity = test system: parasympathetic activity
Procedure: Changes in heart rate (HR) and RR-interval were monitored over the last 5 min of a 15 min period of quiet rest in a supine position to establish baseline values. Time-domain indices of heart rate variability (HRV) including the root mean square differences of successive normal sinus RR intervals (rMSSD) and the percentage of successive normal sinus RR intervals >50 ms (pNN50) were calculated from a 3-lead ECG that was continuously recorded via a Finapres NOVA (Finapres Medical Systems, The Netherlands). Following treatment an additional 5 min segment of data was collected in the same manner and used to calculate post-treatment values of rMSSD and pNN50.
Parasympathetic activity was determined as described above. Potassium levels were determined using standard clinical laboratory procedures (Labcorp).

IL-6 = test system: IL-6
Procedure: (§2) IL-6 and TNF-α were determined in plasma samples using the microfluidic simple plex cartridge system following manufacturer specifications. Briefly, Simple Plex uses 25 μL of serum for measurement of the […] cytokines. The work flow of the Simple Plex assays is: (a) a test cartridge is primed with samples with each sample split into channels (i.e., TNF-α and IL-6 to react with their respective antibodies immobilized on glass nanoreactors; (b) after sample incubation, circuits in the cartridge are cleaned with wash buffer, and biotinylated detection antibody solutions are individually pumped into their respective channels to bind to protein analyte captured on the GNRs; (c) after incubation, unbound detection antibodies are washed away and a detection solution (i.e., streptavidin DyLight 650) is flowed into all channels to conjugate with the biotinylated detection antibodies; (d) the detection solution is washed away; detection fluorophores (i.e., DyLight 650) are excited with a 631 nm laser; and the fluorescence signals are read with a charge-coupled device (CCD) camera. The signals are used for quantification based on master calibrator curves provided by the manufacturer.

TNF-α = test system: TNF-α
Procedure: as §2

[3] = compared to vehicle (0.1M NaCl)
[4] = healthy rats, 3 days of drinking, 0.1M

With `O=C([O-])O.[Na+]` [NaHCO3, sodium bicarbonate] the “urinary K excretion” value [1, 3] was “no effect”, the “urinary Na excretion” value [1, 3] was “no effect” and the “urinary Cl excretion” value ([1]; compared to vehicle, p=0.03) was “significantly lower”. The “anti-inflammatory T-regulatory cells” value [2, 4] was “robust but identical increases”, the “pro-inflammatory TH17 cells” value [2, 4] was “decreases” and the “circulating anti-inflammatory T cells (FOXP3+ T-regs)” value ([2]; rats, 4 days in drinking water) was “significantly increased”. The “CD3 (% total kidney)” value (blood; 14 Days HS) was 57 ± 2%, the “CD4 (% of CD3)” value (blood; 14 Days HS) was 53 ± 2% and the “CD44 (% of CD3)” value (blood; 14 Days HS) was 14 ± 2%. The “CD69 (% of CD3)” value (blood; 14 Days HS) was 0.9 ± 0.3%, the “FOXP3 (% of CD3/CD4)” value (blood; 14 Days HS) was 4.4 ± 0.6% and the “IL-17 (% of total kidney)” value (blood; 14 Days HS) was 6 ± 1%. The CD3 (blood; 3 days LS) was 57 ± 2%, the CD4 (blood; 3 days LS) was 55 ± 1% and the CD44 (blood; 3 days LS) was 18 ± 1%. For the same compound, the CD69 (blood; 3 days LS) was 1.6 ± 0.5%, the FOXP3 (blood; 3 days LS) was 5.8 ± 0.7% and the IL-17 (blood; 3 days LS) was 5.6 ± 1.1%. For the same compound, the M2 macrophages (splenic macrophages) was “no effect”, the splenic macrophages (splenic macrophages) was “increased” and the “parasympathetic activity (rMSSD)” value (parasympathetic activity; ingestion for 2 weeks) was “improves”. The “parasympathetic activity (rMSSD)” value (parasympathetic activity; single dose, 60 minutes) was “improves”, the IL-6 (IL-6; ingestion for 2 weeks) was “reduces” and the IL-6 (IL-6; single dose, 60 minutes) was “reduces”. The TNF-α (TNF-α; ingestion for 2 weeks) was “reduces” and the TNF-α (TNF-α; single dose, 60 minutes) was “reduces”.
